Test system: artificial thrombosis
Test: Fibrinolysis of artificial thrombosis (Chandler's method) with ultrasonic catheter
Design: species or system human
Conditions: for time for achieving 20% fibrinolysis: FIG. 4, thrombosis from blood of one person, urokinase 1200 IU/ml
Method: An artificial thrombosis was formed by Chandler's method. Blood (1 ml) that was collected from healthy humans (two persons) was entered into a flexible tube (inside diameter 3 mm, length 265 mm) and thereto was added calcium chloride, and then the tube was made a loop like shape, which was rotated at 12 rpm for 20 minutes to give an artificial thrombosis model.
A ceramic ultrasonic element (width 2 mm, length 5 mm, thickness 1 mm) was inserted into the tip of a catheter (diameter 2 mm), and an oscillating element was connected to an oscillator provided outside with a fine connector passed through the catheter. A fine tube for pouring a test solution was provided at an opening opposite to the opening of the catheter end.
The artificial thrombosis prepared above was added to a test tube together with blood, and the ultrasonic catheter was inserted into the test tube so that the end of the catheter was set close to the portion of the artificial thrombosis (at a distance of about 5 mm), and to the test tube a mixture of urokinase and a booster prepared in Example 1 was added at a rate of 1 ml per minute, wherein urokinase (concentration 1200 IU/ml) and the booster were mixed immediately before pouring at a mixing ration of 1:1 by weight. The mixture was refluxed while keeping the volume of the test solution at a constant level by removing excess volume of the solution by suction. The ultrasound (170 KHz) was exposed to the mixture by a pulse method (exposed for 2 seconds and stopped for 4 seconds) for 2 minutes (total exposing time 40 seconds). After the exposure, the ultrasonic catheter was removed from the test tube, and the mixture was incubated at 37 degrees C. for 5 to 120 minutes, washed with a physiological saline solution several times and dried overnight. Thereafter, the dried mixture was weighed. As a control, the above was repeated by using only a physiological saline solution.
The rate of fibrinolysis was calculated by the following equation: […]
The results are shown in the accompanying FIGS. 4 and 5 wherein there are shown in average of twice tests.

urokinase
time for achieving 20% fibrinolysis (with exposure of ultrasound (170 KHz, pulse, 2 minutes)): 30 min
time for achieving 20% fibrinolysis (without exposure of ultrasound): 45 min
treatment time at which 50% fibrinolysis was achieved (FIG. 5, thrombosis from blood of another person, with exposure of ultrasound, energy reduced by 15%): 60 min

Reference: patent publication US20080274097A1, “BOOSTER FOR THERAPY OF DISEASES WITH ULTRASOUND AND PHARMACEUTICAL LIQUID COMPOSITION CONTAINING THE SAME” (priority 1991, published 2008)
